In ChEMBL document CHEMBL3272065 (J Med Chem, 1977):

Columns and labels:
[1] = Half life of the compound at pH 7.4 at 37 degC at 3.4 x 10' -3 M; assay type: physicochemical
[2] = Hydrolysis of the compound at pH 7.4 at 37 degC assessed as first-order rate coefficient at 3.4 x 10' -3 M; assay type: physicochemical; settings: buffer, pH 7.4, 3400 µM

O=[N+]([O-])c1cc([N+](=O)[O-])c(NCCCSCCCl)c(S(=O)(=O)O)c1
half-life at 3400 µM [1]: 5.83 min | K [2]: 2 ×10⁻³ /s
